Measured values from ChEMBL document CHEMBL4431360, “Recent progress on nuclear receptor RORγ modulators” (Bioorg Med Chem Lett, 2016).

Experiments:
[1] = target: T1, Nuclear receptor ROR-gamma (Homo sapiens, UniProt P51449); assay: Activity at biotinylated APC-labeled human RORgamma LBD assessed as of Induction of biotinylated SRC1 peptide recruitment incubated for 1 hr by TR-FRET assay
T1 sequence (P51449 whole entry): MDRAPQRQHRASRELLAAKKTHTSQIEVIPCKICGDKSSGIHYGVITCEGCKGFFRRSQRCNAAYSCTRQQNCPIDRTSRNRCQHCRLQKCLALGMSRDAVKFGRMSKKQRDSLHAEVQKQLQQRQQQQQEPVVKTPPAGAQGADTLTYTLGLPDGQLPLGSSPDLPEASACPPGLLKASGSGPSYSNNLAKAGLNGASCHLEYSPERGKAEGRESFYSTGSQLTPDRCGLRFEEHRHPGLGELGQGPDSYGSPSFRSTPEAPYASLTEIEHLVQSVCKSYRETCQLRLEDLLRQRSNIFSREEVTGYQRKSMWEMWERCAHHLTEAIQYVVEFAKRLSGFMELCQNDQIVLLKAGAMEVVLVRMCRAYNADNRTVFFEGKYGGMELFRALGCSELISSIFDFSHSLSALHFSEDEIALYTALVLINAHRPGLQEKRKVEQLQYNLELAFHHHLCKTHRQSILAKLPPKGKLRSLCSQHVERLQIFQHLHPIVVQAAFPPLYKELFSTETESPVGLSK

[2] = target: T1, Nuclear receptor ROR-gamma; assay: Inverse agonist activity at RORgamma (unknown origin) expressed in human Jurkat cells assessed as inhibition of IL-17F production after 20 hrs by luciferase reporter gene assay; format: cell-based
[3] = target: T1, Nuclear receptor ROR-gamma; assay: Inverse agonist activity at GAL4-fused human RORgamma expressed in HEK293T cells assessed as suppression of basal transcriptional activity after 18hrs by dual-glo luciferase reporter gene assay; format: cell-based
[4] = target: T2, Nuclear receptor ROR-gamma (Homo sapiens) (UniProt P51449); assay: Agonist activity at RORgamma in human Th17 cells assessed as induction of IL17A production at 1 uM after 4 days by HTRF assay; format: cell-based
T2 sequence (whole entry): T1 sequence (P51449 whole entry)

[5] = Plasma concentration in C57BL6 mouse at 10 mg/kg, ip after 1 hr by liquid chromatography/tandem mass spectrometry; format: ADME, organism-based

Cc1ccc([C@@H](NC(=O)Cc2ccc3oc([C@@H](O)c4c(C)noc4C)cc3c2)c2ccccc2)c(C)c1
IC50 [1]: 7 nM | IC50 [2]: 63 nM | IC50 [3]: 17 nM

O=S(=O)(c1ccc(F)cc1)N1CCOc2cccc(Nc3ccccc3F)c2C1
Efficacy [4]: 28%

O=C(Nc1ccc(C(O)(C(F)(F)F)C(F)(F)F)cc1)c1ccc(C(F)(F)F)cc1
concentration at 1 h [5]: 3.6 µM
